Reference: patent US20240343733A1, “COMPOUNDS FOR TARGETING DEGRADATION OF IRAK4 PROTEINS” (BIOGEN MA INC., priority 2021, published 2024)

Tests used:
[1] = target: T1, IRAK4 (Homo sapiens, UniProt Q9NWZ3); test: IRAK4 Degradation Assay, HiBiT Method; format: cell-based; conditions: 293T cells expressing HiBiT-tagged IRAK4, 6 hours
T1 construct: 293Tcells expressing HiBiT-tagged IRAK4 were then added into 384-well plates
T1 sequence (Q9NWZ3 1-460): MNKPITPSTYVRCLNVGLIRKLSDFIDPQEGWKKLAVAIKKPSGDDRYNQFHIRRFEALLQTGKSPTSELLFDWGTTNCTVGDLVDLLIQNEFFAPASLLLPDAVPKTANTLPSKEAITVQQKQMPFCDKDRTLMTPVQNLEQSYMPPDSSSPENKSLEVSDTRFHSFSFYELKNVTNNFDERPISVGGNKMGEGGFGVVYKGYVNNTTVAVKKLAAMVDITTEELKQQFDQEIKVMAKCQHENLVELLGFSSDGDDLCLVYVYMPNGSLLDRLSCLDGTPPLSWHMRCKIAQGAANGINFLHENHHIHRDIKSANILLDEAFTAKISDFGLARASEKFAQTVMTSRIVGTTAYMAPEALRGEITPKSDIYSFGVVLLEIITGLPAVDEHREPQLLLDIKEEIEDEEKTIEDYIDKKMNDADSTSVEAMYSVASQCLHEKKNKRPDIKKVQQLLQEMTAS
Procedure, shortened: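 Luminescent read-out with Nano-Glo HiBiT lytic reagent after 6 h compound exposure at 37 °C. Cells were HiBiT-IRAK4 knock-in 293T (C-terminal tag), 10,000 per well. Compounds ran as 11-point half-log dilutions from […] highest dose, duplicate wells; DMSO served as negative control.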

[2] = target: T2, IKZF1 (Homo sapiens, UniProt Q13422); test: IKZF1 Degradation Assay, HiBiT Method; format: cell-based; conditions: NCIH929 cells expressing HiBiT-tagged IKZF1, 6 hours, top concentration 10 μM
T2 construct: endogenously expressing IKZF1 with HiBiT fusion tag via CRISPR
Method: Assay 2. IKZF1 Degradation Assay, HiBiT Method
Selected compounds of this disclosure were tested in an IKZF1 degradation assay using the HiBiT Method.
RPMI no-phenol red medium and fetal bovine serum (FBS) were purchased from Gibco (Grand Island, NY, USA). Nano-Glo® HiBiT Lytic Assay System was purchased from Promega (Madison, WI, USA). […] Cell culture flasks and 384-well microplates were acquired from VWR (Radnor, PA, USA).
IKZF1 degradation was determined based on quantification of luminescent signal using Nano-Glo® HiBiT Lytic Assay kit. […] NCIH929 cells expressing HiBiT-tagged IKZF1 were added into 384-well plates in RPMI medium containing 10% FBS and 0.05 mM 2-mercaptoethanol at a cell density of 15000 cells per well. The plates were kept at 37° C. with 5% CO2 for 6 hours. Cells treated in the absence of the test compound were the negative control and wells containing media only were the positive control. After 6-hour incubation, Nano-Glo® HiBiT Lytic Assay reagents were added to the designated wells. Luminescence was acquired on EnVision® Multilabel Reader (PerkinElmer, Santa Clara, CA, USA).

T2 sequence (Q96SW2 whole entry partner, the tested form may be a part): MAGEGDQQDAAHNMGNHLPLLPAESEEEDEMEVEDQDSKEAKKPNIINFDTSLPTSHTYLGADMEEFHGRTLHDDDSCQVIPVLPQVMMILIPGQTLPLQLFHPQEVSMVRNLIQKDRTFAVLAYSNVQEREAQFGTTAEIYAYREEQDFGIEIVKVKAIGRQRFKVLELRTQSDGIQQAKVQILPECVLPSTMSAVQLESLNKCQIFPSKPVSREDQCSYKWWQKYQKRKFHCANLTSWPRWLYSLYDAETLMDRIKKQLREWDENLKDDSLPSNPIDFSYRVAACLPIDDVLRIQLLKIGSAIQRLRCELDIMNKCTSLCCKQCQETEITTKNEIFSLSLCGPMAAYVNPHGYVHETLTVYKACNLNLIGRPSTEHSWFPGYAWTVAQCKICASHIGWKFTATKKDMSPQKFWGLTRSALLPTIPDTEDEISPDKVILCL
T2 sequence (Q16531 whole entry partner, the tested form may be a part): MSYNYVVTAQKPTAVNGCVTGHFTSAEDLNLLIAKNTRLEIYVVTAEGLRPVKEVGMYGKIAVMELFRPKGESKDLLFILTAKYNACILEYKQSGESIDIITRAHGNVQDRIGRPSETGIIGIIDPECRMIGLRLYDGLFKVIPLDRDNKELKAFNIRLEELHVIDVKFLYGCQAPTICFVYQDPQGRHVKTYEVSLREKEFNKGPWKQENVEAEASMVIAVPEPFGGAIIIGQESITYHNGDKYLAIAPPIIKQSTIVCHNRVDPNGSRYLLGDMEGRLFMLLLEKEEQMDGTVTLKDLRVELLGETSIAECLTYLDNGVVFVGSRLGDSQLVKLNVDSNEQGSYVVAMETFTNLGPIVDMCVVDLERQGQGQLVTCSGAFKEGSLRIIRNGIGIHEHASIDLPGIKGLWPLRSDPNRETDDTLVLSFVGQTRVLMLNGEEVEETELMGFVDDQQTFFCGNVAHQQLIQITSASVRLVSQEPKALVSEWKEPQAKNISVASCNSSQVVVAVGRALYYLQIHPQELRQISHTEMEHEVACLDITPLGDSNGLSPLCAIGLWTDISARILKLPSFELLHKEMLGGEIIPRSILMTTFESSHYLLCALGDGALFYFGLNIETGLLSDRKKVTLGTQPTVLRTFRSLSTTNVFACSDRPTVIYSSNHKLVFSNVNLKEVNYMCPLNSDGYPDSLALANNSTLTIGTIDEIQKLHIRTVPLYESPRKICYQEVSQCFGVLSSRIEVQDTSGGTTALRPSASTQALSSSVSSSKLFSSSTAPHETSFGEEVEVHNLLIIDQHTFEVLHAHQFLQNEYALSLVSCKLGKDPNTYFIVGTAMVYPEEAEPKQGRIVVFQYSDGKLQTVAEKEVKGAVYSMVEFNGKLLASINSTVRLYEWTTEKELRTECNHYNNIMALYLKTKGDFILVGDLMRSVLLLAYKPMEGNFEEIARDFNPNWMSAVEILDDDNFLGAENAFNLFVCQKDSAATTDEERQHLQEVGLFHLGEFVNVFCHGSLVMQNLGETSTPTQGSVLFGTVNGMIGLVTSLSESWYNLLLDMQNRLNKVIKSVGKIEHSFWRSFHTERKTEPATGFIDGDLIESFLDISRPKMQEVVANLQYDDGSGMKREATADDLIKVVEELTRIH
T2 sequence (Q13422 whole entry, the tested form may be a part): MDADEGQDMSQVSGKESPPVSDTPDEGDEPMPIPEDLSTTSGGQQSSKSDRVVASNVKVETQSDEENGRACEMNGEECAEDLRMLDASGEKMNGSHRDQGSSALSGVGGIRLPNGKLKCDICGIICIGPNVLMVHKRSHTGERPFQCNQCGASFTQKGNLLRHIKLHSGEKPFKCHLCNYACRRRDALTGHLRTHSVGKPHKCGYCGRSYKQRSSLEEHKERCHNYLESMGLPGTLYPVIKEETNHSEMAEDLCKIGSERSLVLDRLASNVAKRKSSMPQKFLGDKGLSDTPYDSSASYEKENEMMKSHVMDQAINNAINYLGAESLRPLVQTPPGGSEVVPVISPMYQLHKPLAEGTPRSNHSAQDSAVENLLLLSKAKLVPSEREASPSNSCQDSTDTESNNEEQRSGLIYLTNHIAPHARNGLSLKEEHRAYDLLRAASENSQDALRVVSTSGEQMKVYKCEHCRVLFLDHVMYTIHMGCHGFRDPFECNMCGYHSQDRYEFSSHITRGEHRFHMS

In the case of `CC(C)Oc1cc2nc([C@H]3CC[C@H](CN4CCC(c5ccc(OC6CCC(=O)NC6=O)cc5)CC4)CC3)cn2cc1C(=O)Nc1cccc(C(F)F)n1` (stereo partly shown) [Example 31, N-[6-(difluoromethyl)-2-pyridyl]-2-[4-[[4-[4-[(2,6-dioxo-3-piperidyl)oxy]phenyl]-1-piperidyl]methyl]cyclohexyl]-7-isopropoxy-imidazo[1,2-a]pyridine-6-carboxamide], the DC50 [1] is reported as 10 to 100 nM and the DC50 [2] is reported as over 10000 nM.

`CC(C)Oc1cc2nc([C@H]3CC[C@H](CN4CCC(c5ccc6c(N7CCC(=O)NC7=O)nn(C)c6c5)CC4)CC3)cn2cc1C(=O)Nc1cccc(C(F)F)n1` [Example 38, N-[6-(difluoromethyl)-2-pyridyl]-2-[4-[[4-[3-(2,4-dioxohexahydropyrimidin-1-yl)-1-methyl-indazol-6-yl]-1-piperidyl]methyl]cyclohexyl]-7-isopropoxy-imidazo[1,2-a]pyridine-6-carboxamide] showed a DC50 [1] of under 10 nM and a DC50 [2] of over 10000 nM.

For `CC(C)Oc1cc2nc([C@H]3CC[C@H](CN4CCN(c5ccc6c(N7CCC(=O)NC7=O)nn(C)c6c5)CC4)CC3)cn2cc1C(=O)Nc1cccc(C(F)F)n1` [Example 41, N-[6-(difluoromethyl)-2-pyridyl]-2-[4-[[4-[3-(2,4-dioxohexahydropyrimidin-1-yl)-1-methyl-indazol-6-yl]piperazin-1-yl]methyl]cyclohexyl]-7-isopropoxy-imidazo[1,2-a]pyridine-6-carboxamide], the DC50 [1] was 10 to 100 nM and the DC50 [2] was over 10000 nM.

Work on `CC(C)Oc1cc2nc(C3CCC(CN4CCC(c5ccc(C6CCC(=O)NC6=O)cc5F)CC4)CC3)cn2cc1C(=O)Nc1cnn2cccnc12` (stereo not shown) [Example 47, 2-[4-[[4-[4-(2,6-dioxo-3-piperidyl)-2-fluoro-phenyl]-1-piperidyl]methyl]cyclohexyl]-7-isopropoxy-N-pyrazolo[1,5-a]pyrimidin-3-yl-imidazo[1,2-a]pyridine-6-carboxamide] yielded a DC50 [1] of under 10 nM and a DC50 [2] of over 10000 nM.

`CC(C)Oc1cc2nc([C@H]3CC[C@H](CN4CCC(c5ccc6c(c5)n(C)c(=O)n6C5CCC(=O)NC5=O)C(F)(F)C4)CC3)cn2cc1C(=O)Nc1cnn2cccnc12` (stereo partly shown) [Example 49, 2-[4-[[4-[1-(2,6-dioxo-3-piperidyl)-3-methyl-2-oxo-benzimidazol-5-yl]-3,3-difluoro-1-piperidyl]methyl]cyclohexyl]-7-isopropoxy-N-pyrazolo[1,5-a]pyrimidin-3-yl-imidazo[1,2-a]pyridine-6-carboxamide] gave a DC50 [1] of under 10 nM and a DC50 [2] of over 10000 nM.

Work on `CC(C)Oc1cc2nc([C@H]3CC[C@H](CN4CCC(c5ccc(OC6CCC(=O)NC6=O)cc5)CC4)CC3)cn2cc1C(=O)Nc1cnn2cccnc12` (stereo partly shown) [Example 50, 2-[4-[[4-[4-[(2,6-dioxo-3-piperidyl)oxy]phenyl]-1-piperidyl]methyl]cyclohexyl]-7-isopropoxy-N-pyrazolo[1,5-a]pyrimidin-3-yl-imidazo[1,2-a]pyridine-6-carboxamide] yielded a DC50 [1] of under 10 nM and a DC50 [2] of over 10000 nM.

`Cc1cnc2c(NC(=O)c3cn4cc([C@H]5CC[C@H](CN6CCC(c7ccc(OC8CCC(=O)NC8=O)cc7)CC6)CC5)nc4cc3OC(C)C)cnn2c1` (stereo partly shown) [Example 52, 2-[4-[[4-[4-[(2,6-dioxo-3-piperidyl)oxy]phenyl]-1-piperidyl]methyl]cyclohexyl]-7-isopropoxy-N-(6-methylpyrazolo[1,5-a]pyrimidin-3-yl)imidazo[1,2-a]pyridine-6-carboxamide] was tested, and the DC50 [1] was under 10 nM and the DC50 [2] was over 10000 nM.

Work on `CC(C)Oc1cc2nc([C@H]3CC[C@H](CN4CCC(c5cc(F)c(C6CCC(=O)NC6=O)cc5F)C(F)(F)C4)CC3)cn2cc1C(=O)Nc1cnn2cccnc12` (stereo partly shown) [Example 53, 2-[4-[[4-[4-(2,6-dioxo-3-piperidyl)-2,5-difluoro-phenyl]-3,3-difluoro-1-piperidyl]methyl]cyclohexyl]-7-isopropoxy-N-pyrazolo[1,5-a]pyrimidin-3-yl-imidazo[1,2-a]pyridine-6-carboxamide] yielded a DC50 [1] of 10 to 100 nM and a DC50 [2] of over 10000 nM.

`CC(C)Oc1cc2nn(C3CCN(C(=O)CN4CCC(c5ccc(NC6CCC(=O)NC6=O)cc5)CC4)CC3)cc2cc1C(=O)Nc1cnn2cccnc12` (stereo not shown) [Example 55, 2-(1-(2-(4-(4-((2,6-dioxopiperidin-3-yl)amino)phenyl)piperidin-1-yl)acetyl)piperidin-4-yl)-6-isopropoxy-N-(pyrazolo[1,5-a]pyrimidin-3-yl)-2H-indazole-5-carboxamide] showed a DC50 [1] of under 10 nM and a DC50 [2] of over 10000 nM.

`CC(C)Oc1cc2nc(C3CCN(C(=O)CN4CCC(c5ccc(C6CCC(=O)NC6=O)cc5)CC4)CC3)cn2cc1C(=O)Nc1cccc(C(F)F)n1` (stereo not shown) [Example 68, N-[6-(difluoromethyl)-2-pyridyl]-2-[1-[2-[4-[4-(2,6-dioxo-3-piperidyl)phenyl]-1-piperidyl]acetyl]-4-piperidyl]-7-isopropoxy-imidazo[1,2-a]pyridine-6-carboxamide] was tested, and the DC50 [1] was 10 to 100 nM and the DC50 [2] was over 10000 nM.

In the case of `CC(C)Oc1cc2nc(C3CCN(C(=O)CC4(O)CCN(c5ccc(NC6CCC(=O)NC6=O)cc5F)CC4)CC3)cn2cc1C(=O)Nc1cccc(C(F)F)n1` (stereo not shown) [Example 69, N-[6-(difluoromethyl)-2-pyridyl]-2-[1-[2-[1-[4-[(2,6-dioxo-3-piperidyl)amino]-2-fluoro-phenyl]-4-hydroxy-4-piperidyl]acetyl]-4-piperidyl]-7-isopropoxy-imidazo[1,2-a]pyridine-6-carboxamide], the DC50 [1] is reported as under 10 nM and the DC50 [2] is reported as over 10000 nM.

Work on `CC(C)Oc1cc2nc(C3CCN(C(=O)CC4(O)CCN(c5cc(F)c(NC6CCC(=O)NC6=O)cc5F)CC4)CC3)cn2cc1C(=O)Nc1cccc(C(F)F)n1` (stereo not shown) [Example 70, N-[6-(difluoromethyl)-2-pyridyl]-2-[1-[2-[1-[4-[(2,6-dioxo-3-piperidyl)amino]-2,5-difluoro-phenyl]-4-hydroxy-4-piperidyl]acetyl]-4-piperidyl]-7-isopropoxy-imidazo[1,2-a]pyridine-6-carboxamide] yielded a DC50 [1] of under 10 nM and a DC50 [2] of over 10000 nM.

Molecule `CC(C)Oc1cc2nc(C3CCN(C(=O)CC4(O)CCN(c5ccc(NC6CCC(=O)NC6=O)cc5)CC4)CC3)cn2cc1C(=O)Nc1cccc(C(F)F)n1` (stereo not shown) [Example 71, N-[6-(difluoromethyl)-2-pyridyl]-2-[1-[2-[1-[4-[(2,6-dioxo-3-piperidyl)amino]phenyl]-4-hydroxy-4-piperidyl]acetyl]-4-piperidyl]-7-isopropoxy-imidazo[1,2-a]pyridine-6-carboxamide] has a DC50 [1] of 10 to 100 nM and a DC50 [2] of over 10000 nM.

With `CC(C)Oc1cc2nc(C3CCN(C(=O)CC4(O)CCN(c5ccc(NC6CCC(=O)NC6=O)cc5Cl)CC4)CC3)cn2cc1C(=O)Nc1cccc(C(F)F)n1` (stereo not shown) [Example 73, 2-[1-[2-[1-[2-chloro-4-[(2,6-dioxo-3-piperidyl)amino]phenyl]-4-hydroxy-4-piperidyl]acetyl]-4-piperidyl]-N-[6-(difluoromethyl)-2-pyridyl]-7-isopropoxy-imidazo[1,2-a]pyridine-6-carboxamide] the DC50 [1] was under 10 nM and the DC50 [2] was over 10000 nM.

`CC(C)Oc1cc2nc(C3CCN(C(=O)CC4CCN(c5ncc(NC6CCC(=O)NC6=O)cc5F)CC4)CC3)cn2cc1C(=O)Nc1cccc(C(F)F)n1` (stereo not shown) [Example 81, N-[6-(difluoromethyl)-2-pyridyl]-2-[1-[2-[1-[5-[(2,6-dioxo-3-piperidyl)amino]-3-fluoro-2-pyridyl]-4-piperidyl]acetyl]-4-piperidyl]-7-isopropoxy-imidazo[1,2-a]pyridine-6-carboxamide] gave a DC50 [1] of 10 to 100 nM and a DC50 [2] of over 10000 nM.

Molecule `CC(C)Oc1cc2nc(C3CCN(C(=O)CN4CCC(c5ccc(C6CCC(=O)NC6=O)cc5)CC4)CC3)cn2cc1C(=O)Nc1cnn2cccnc12` (stereo not shown) [Example 87, 2-[1-[2-[4-[4-(2,6-dioxo-3-piperidyl)phenyl]-1-piperidyl]acetyl]-4-piperidyl]-7-isopropoxy-N-pyrazolo[1,5-a]pyrimidin-3-yl-imidazo[1,2-a]pyridine-6-carboxamide] has a DC50 [1] of under 10 nM and a DC50 [2] of over 10000 nM.

`CC(C)Oc1cc2nc(C3CCN(CC(=O)N4CCC(c5ccc(C6CCC(=O)NC6=O)cc5)CC4)CC3)cn2cc1C(=O)Nc1cnn2cccnc12` (stereo not shown) [Example 96, 2-[1-[2-[4-[4-(2,6-dioxo-3-piperidyl)phenyl]-1-piperidyl]-2-oxo-ethyl]-4-piperidyl]-7-isopropoxy-N-pyrazolo[1,5-a]pyrimidin-3-yl-imidazo[1,2-a]pyridine-6-carboxamide] was tested, and the DC50 [1] was 10 to 100 nM and the DC50 [2] was over 10000 nM.
